# Tested on: HCV replicon
# Test: Replicon based assay of HCV replication inhibition (NPT ELISA)
# Type: cell-based, Hepatitis C virus
# Conditions: Hepatitis C virus, Huh-7, 72 h, Table III; Huh-7 HCV replicon-containing cells, three days; read-out: Activity
# Summary of the method: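 Huh-7 cells carrying a bicistronic HCV replicon (neo, EMCV-IRES-driven NS3–NS5B) treated overnight after seeding with usually 6 concentrations, 10 to 0.03 micromolar, for three days at 37° C without G418. Replication read as NPT level by captured ELISA; matched-DMSO wells and interferon alpha as controls.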
row,SMILES,EC50 [nM]
1,"CCCCCCCc1ccc(Nc2nc(Cc3cccc(F)c3)cs2)cc1 [compound 519, 4-(3-fluorobenzyl)-N-(4-heptylphenyl)thiazol-2-amine]",1000 to 10000
2,"CCCCCOc1ccc(Nc2nc(-c3cncc(C#N)c3)cs2)cc1C(F)(F)F [compound 520, 5-(2-(3-(trifluoromethyl)-4-(pentyloxy)phenylamino)thiazol-4-yl)pyridine-3-carbonitrile]",< 1000
3,CCCCCOc1ccc(Nc2nc(-c3ccc[n+]([O-])c3)cs2)cc1C(F)(F)F [compound 521],< 1000
4,CCCCCCCCOc1ccc(Nc2nc(-c3ccc[n+]([O-])c3)cs2)cc1 [compound 522],< 1000
5,"CCCCCCCOc1ccc(Nc2nc(-c3ccc(NC)nc3)cs2)cc1 [compound 523, 5-(2-(4-(heptyloxy)phenylamino)thiazol-4-yl)-N-methylpyridin-2-amine]",< 1000
6,CCCCCCCCc1ccc(Nc2nc(-c3ccc[n+]([O-])c3)cs2)cc1 [compound 524],< 1000
7,CCCCCCCOc1ccc(Nc2nc(-c3ccc[n+]([O-])c3)cs2)cc1 [compound 525],< 1000
8,"CCCCCCCCOc1ccc(Nc2nc(-c3ccc(F)nc3)cs2)cc1C(F)(F)F [compound 526, N-(3-(trifluoromethyl)-4-(octyloxy)phenyl)-4-(6-fluoropyridin-3-yl)thiazol-2-amine]",< 1000
9,"CCCCCOc1ccc(Nc2nc(-c3ccc(F)nc3)cs2)cc1F [compound 527, N-(3-fluoro-4-(pentyloxy)phenyl)-4-(6-fluoropyridin-3-yl)thiazol-2-amine]",< 1000
10,"Fc1ccc(-c2csc(Nc3ccc(OCCCC4CCCC4)c(C(F)(F)F)c3)n2)cn1 [compound 528, N-(4-(3-cyclopentylpropoxy)-3-(trifluoromethyl)phenyl)-4-(6-fluoropyridin-3-yl)thiazol-2-amine]",< 1000
11,"CCCCCN(C)c1ccc(Nc2nc(-c3ccc(F)nc3)cs2)cc1C(F)(F)F [compound 529, 2-(trifluoromethyl)-N4-(4-(6-fluoropyridin-3-yl)thiazol-2-yl)-N1-methyl-N1-pentylbenzene-1,4-diamine]",< 1000
12,"Fc1ccc(-c2csc(Nc3ccc(OCC4CCCCC4)c(F)c3)n2)cn1 [compound 530, N-(4-(cyclohexylmethoxy)-3-fluorophenyl)-4-(6-fluoropyridin-3-yl)thiazol-2-amine]",< 1000
13,"CCCC/C=C\CCOc1ccc(Nc2nc(-c3cccnc3)cs2)cc1C(F)(F)F [compound 531, N-(4-((Z)-oct-3-enyloxy)-3-(trifluoromethyl)phenyl)-4-(pyridin-3-yl)thiazol-2-amine]",< 1000
14,"CCCC/C=C\CCOc1ccc(Nc2nc(-c3ccc(C)nc3)cs2)cc1C(F)(F)F [compound 532, N-(4-((Z)-oct-3-enyloxy)-3-(trifluoromethyl)phenyl)-4-(6-methylpyridin-3-yl)thiazol-2-amine]",< 1000
15,"CCCC/C=C\CCOc1ccc(Nc2nc(-c3ccc(F)cc3)cs2)cc1C(F)(F)F [compound 533, N-(4-((Z)-oct-3-enyloxy)-3-(trifluoromethyl)phenyl)-4-(4-fluorophenyl)thiazol-2-amine]",< 1000
16,"CCCCCOc1ccc(Nc2nc(-c3ccc4c(c3)OCO4)cs2)cc1C(F)(F)F [compound 534, 4-(benzo[d][1,3]dioxol-6-yl)-N-(3-(trifluoromethyl)-4-(pentyloxy)phenyl)thiazol-2-amine]",< 1000
17,"CCCCCOc1ccc(Nc2nc(-c3ccc(NC)nc3)cs2)cc1C(F)(F)F [compound 535, 5-(2-(3-(trifluoromethyl)-4-(pentyloxy)phenylamino)thiazol-4-yl)-N-methylpyridin-2-amine]",< 1000
18,"CCCCCCCCOc1ccc(Nc2nc(-c3ccc(NC)nc3)cs2)cc1C(F)(F)F [compound 536, 5-(2-(3-(trifluoromethyl)-4-(octyloxy)phenylamino)thiazol-4-yl)-N-methylpyridin-2-amine]",< 1000
19,"CNc1ccc(-c2csc(Nc3ccc(OC4CCCC4)c(C(F)(F)F)c3)n2)cn1 [compound 537, 5-(2-(4-(cyclopentyloxy)-3-(trifluoromethyl)phenylamino)thiazol-4-yl)-N-methylpyndin-2-amine]",< 1000
20,"CCCCCOc1ccc(Nc2nc(-c3cnc4ccccc4c3)cs2)cc1C(F)(F)F [compound 538, N-(3-(trifluoromethyl)-4-(pentyloxy)phenyl)-4-(quinolin-3-yl)thiazol-2-amine]",< 1000
21,"CCCCCCCCOc1ccc(Nc2nc(-c3cnc4ccccc4c3)cs2)cc1C(F)(F)F [compound 539, N-(3-(trifluoromethyl)-4-(octyloxy)phenyl)-4-(quinolin-3-yl)thiazol-2-amine]",< 1000
22,"CCCCCCCCOc1ccc(Nc2nc(-c3ccc(N(C)C)nc3)cs2)cc1C(F)(F)F [compound 541, 5-(2-(3-(trifluoromethyl)-4-(octyloxy)phenylamino)thiazol-4-yl)-N,N-dimethylpyridin-2-amine]",< 1000

row,SMILES,EC50 [nM]
1,"CCCCCOc1ccc(Nc2nc(/C=C/c3cccc(Cl)c3)cs2)cc1C(F)(F)F [compound 542, 4-(3-chlorostyryl)-N-(3-(trifluoromethyl)-4-(pentyloxy)phenyl)thiazol-2-amine]",< 1000
2,"CCCCCOc1ccc(Nc2nc(-c3cc4cccnc4nc3O)cs2)cc1C(F)(F)F [compound 543, 3-(2-(3-(trifluoromethyl)-4-(pentyloxy)phenylamino)thiazol-4-yl)-l,8-naphthyridin-2-ol]",1000 to 10000
3,"CCCCCCCCc1ccc(Nc2nc(-c3ccc(F)cc3)cs2)cc1 [compound 544, 4-(4-fluorophenyl)-N-(4-octylphenyl)thiazol-2-amine]",< 1000
4,"CCCCCCCCc1ccc(Nc2nc(-c3ccc(O)c(C(N)=O)c3)cs2)cc1 [compound 545, 5-(2-(4-octylphenylamino)thiazol-4-yl)-2-hydroxybenzamide]",< 1000
5,"CCCCCCCCc1ccc(Nc2nc(-c3ccc(Cl)s3)cs2)cc1 [compound 546, 4-(5-chlorothiophen-2-yl)-N-(4-octylphenyl)thiazol-2-amine]",< 1000
6,"CCCCCCCCc1ccc(Nc2nc(-c3ccc(O)c(O)c3)cs2)cc1 [compound 547, 4-(2-(4-octylphenylamino)thiazol-4-yl)benzene-1,2-diol]",< 1000
7,"CCCCCCCCc1ccc(Nc2nc(-c3ccc4c(c3)NC(=O)CO4)cs2)cc1 [compound 548, 6-(2-(4-octylphenylamino)thiazol-4-yl)-2H-benzo[b][1,4]oxazin-3(4H)-one]",< 1000
8,"CCCCCCCCc1ccc(Nc2nc(-c3ccc4[nH]c(=O)oc4c3)cs2)cc1 [compound 549, 6-(2-(4-octylphenylamrno)thiazol-4-yl)benzo[d]oxazol-2(3H)-one]",< 1000
9,"CCCCCCCCc1ccc(Nc2nc(-c3ccc(OCC(=O)O)cc3)c(C)s2)cc1 [compound 550, 2-(4-(2-(4-octylphenylamino)-5-methylthiazol-4-yl)phenoxy)acetic acid]",< 1000
10,"CCCCCCCCc1ccc(Nc2nc(-c3ccccn3)cs2)cc1 [compound 551, N-(4-octylphenyl)-4-(pyridin-2-yl)thiazol-2-amine]",< 1000
11,"CCCCCCCCc1ccc(Nc2nc(-c3ccc(-c4ccccn4)s3)cs2)cc1 [compound 552, N-(4-octylphenyl)-4-(5-(pyridin-2-yl)thiophen-2-yl)thiazol-2-amine]",< 1000
12,"CCCCCCCCc1ccc(Nc2nc(-c3cc4ccccc4o3)cs2)cc1 [compound 553, 4-(benzofuran-2-yl)-N-(4-octylphenyl)thiazol-2-amine]",1000 to 10000
13,"CCCCCCCCc1ccc(Nc2nc(-c3sc(-c4cnccn4)nc3C)cs2)cc1 [compound 554, 4-(4-methyl-2-(pyrazin-2-yl)thiazol-5-yl)-N-(4-octylphenyl)thiazol-2-amine]",< 1000
14,"CCCCCCCCc1ccc(Nc2nc(-c3ccc(Cl)cc3)cs2)cc1 [compound 555, 4-(4-chlorophenyl)-N-(4-octylphenyl)thiazol-2-amine]",< 1000
15,"CCCCCCCc1ccc(Nc2nc(-c3ccc(O)c(C(N)=O)c3)cs2)cc1 [compound 557, 5-(2-(4-heptylphenylamino)thiazol-4-yl)-2-hydroxybenzamide]",< 1000
16,"CCCCCCCc1ccc(Nc2nc(-c3ccc(Cl)s3)cs2)cc1 [compound 558, 4-(5-chlorothiophen-2-yl)-N-(4-heptylphenyl)thiazol-2-amine]",< 1000
17,"CCCCCCCc1ccc(Nc2nc(-c3ccc(O)c(O)c3)cs2)cc1 [compound 559, 4-(2-(4-heptylphenylamino)thiazol-4-yl)benzene-1,2-diol]",< 1000
18,CCCCCCCc1ccc(Nc2nc(-c3ccc4c(c3)NC(=O)CO4)cs2)cc1 [compound 560],< 1000
19,CCCCCCCc1ccc(Nc2nc(-c3ccc4[nH]c(=O)oc4c3)cs2)cc1 [compound 561],< 1000
20,"CCCCCCCc1ccc(Nc2nc(-c3ccc(OCC(=O)O)cc3)c(C)s2)cc1 [compound 562, 2-(4-(2-(4-heptylphenylamino)-5-methylthiazol-4-yl)phenoxy)acetic acid]",< 1000
21,"CCCCCCCc1ccc(Nc2nc(-c3ccccn3)cs2)cc1 [compound 563, N-(4-heptylphenyl)-4-(pyridin-2-yl)thiazol-2-amine]",< 1000

# Same assay, conditions: Hepatitis C virus, replicon based assay of HCV replication inhibition; Table II; read-out: Activity
row,SMILES,EC50 [nM]
1,"CCCCCCCCOc1ccc(Nc2nc(Cc3cccc(F)c3)cs2)cc1 [compound 516, 4-(3-fluorobenzyl)-N-(4-(octyloxy)phenyl)thiazol-2-amine]",> 10000
2,"CCCCCOc1ccc(Nc2nc(Cc3cccc(F)c3)cs2)cc1C(F)(F)F [compound 517, 4-(3-fluorobenzyl)-N-(3-(trifluoromethyl)-4-(pentyloxy)phenyl)thiazol-2-amine]",1000 to 10000
3,"CCCCCCCCN(C)c1ccc(Nc2nc(Cc3cccc(F)c3)cs2)cc1C(F)(F)F [compound 518, N^4-(4-(3-fluorobenzyl)thiazol-2-yl)-2-(trifluoromethyl)-N^1-methyl-N^1-octylbenzene-1,4-diamine]",1000 to 10000

# Source: patent US8088806B2 (Achillion Pharmaceuticals, Inc., priority 2005, dated 2012)
